Source: US20150306169A1, “METHOD AND COMPOSITIONS FOR SYNCHRONIZING TIME OF INSEMINATION IN GILTS” (JBS UNITED ANIMAL HEALTH II LLC, priority 2012, published 2015)

What was measured:
Format in all cases: in vivo, swine
gilts [1] = assay: Estrus observation, triptorelin gel dose study (Example 5); settings: raw average, PTK 2-07
Description: (§1) All gilts were individually fed MATRIX® as a top-dress for 14 or 15 days at the recommended rate of 15 mg/gilt/day. Gilts were withdrawn from MATRIX® feeding (last top-dress in the morning on Day 0) and allocated to each of the following treatments. Controls were vehicle gel treated (vehicle gel without triptorelin) at 120 (+/−2) hours following MATRIX® withdrawal (last top dress). The other gilts were given 100, 200 or 400 mcg triptorelin as the acetate in a methylcellulose gel formulation 120 (+/−2) hours following MATRIX® withdrawal. The four treatments were: • 1. Vehicle gel (VG): vehicle gel without triptorelin at 120 (+/−2) hours after MATRIX® withdrawal. • 2. TG 100: 100 mcg (2 mL 50 mcg/mL) triptorelin gel at 120 (+/−2) hours after MATRIX® withdrawal. • 3. TG 200: 200 mcg (2 mL 100 mcg/mL) triptorelin gel at 120 (+/−2) hours after MATRIX® withdrawal. • 4. TG 400: 400 mcg (2 mL 200 mcg/mL) triptorelin gel at 120 (+/−2) hours after MATRIX® withdrawal.
For post-treatment estrus detection, gilts were housed in individual pens. Boars were housed in separate rooms, and/or at least 12 m away and downwind. To elicit signs of estrus, a mature boar was walked slowly in the alley in front of the gilts' crates, exposing each test gilt to visual, auditory and olfactory signals from the boar for up to 5 minutes. […]

gilts [2] = assay: Ovulation monitoring by transrectal ultrasonography after triptorelin gel at 96, 120 or 144 h post-MATRIX (Example 1); settings: raw average, PTK 1-07 (rep 3), 200 mcg T at 120 h post-MATRIX
Description: All gilts were individually fed MATRIX® as a top-dress for 14 days at the recommended rate of 15 mg/gilt/day. Gilts were withdrawn from MATRIX® feeding (last top feed in the morning on Day 0) and allotted to treatments. Controls were treated with a 1.2% methylcellulose gel formulation without triptorelin at 96 hours following MATRIX® withdrawal (last top-dress). The remaining gilts received 200 mcg triptorelin, as the acetate, in a 1.2% methylcellulose gel formulation intravaginally at various times after MATRIX® withdrawal. The four treatments were: 1) vehicle gel (VG) treatment at 96 hours after MATRIX® withdrawal, 2) triptorelin gel (TG) treatment at 96 hours after MATRIX® withdrawal, 3) TG treatment at 120 hours after MATRIX® withdrawal and 4) TG treatment at 144 hours after MATRIX® withdrawal. All gilts were monitored for their estrous and ovulatory status as described below. Gilts included in replicate 1 were selected from terminal line commercial production gilts located in grow/finish barns. Sexual maturity, as indicated by one or more estrous periods, was not verified prior to the start of MATRIX® feeding. Gilts included in replicate 2 were selected from a maternal line gilt population. Sexual maturity was verified by at least one estrous period verified and recorded prior to starting MATRIX® feeding.
The ovulatory status of all gilts was monitored by transrectal ultrasonography. For replicate one, ovulation was monitored two times on Day 5, then three times a day from Day 6 to Day 8. For replicate two, ovulation was monitored three times a day from Day 5 to Day 8. An Aloka 500 ultrasound machine with a 7.5 MHz linear array transducer attached to a fixed-angle PVC stabilizing rod to facilitate insertion into the rectum was used for this purpose. The transducer and PVC rod were coated with a gynecological lubricant and gently inserted into the rectum until the ovaries were visualized, one at a time. The diameters of the three largest follicles were recorded (to the nearest 0.1 mm) at each scanning. A gilt was declared to have ovulated when the number of large follicles (≧6.5 mm) fell to less than 3.
(§2) A single 2 mL dose of triptorelin gel or vehicle gel was deposited within approximately 1-2 cm posterior to the cervix with a catheter similar to those used for artificial insemination. The dose was delivered using a standard multi-dose applicator attached to the catheter. A new disposable sheath, which surrounds the catheter, was used for each gilt.
Data were analyzed using the Mixed Models procedures of SAS. Models included main effects of time of treatment following the last feeding of MATRIX®, replicate, and treatment by replicate interaction. Differences between treatments were tested on least squares means estimates using the T test at P <0.05. Data for analysis were tested for assumptions of data normality.

gilts [3] = assay: Estrus observation after triptorelin gel (Example 1); settings: raw average, PTK 1-07 (rep 3); 200 mcg T at 120 h post-MATRIX
Description: All gilts were individually fed MATRIX® as a top-dress for 14 days at the recommended rate of 15 mg/gilt/day. Gilts were withdrawn from MATRIX® feeding (last top feed in the morning on Day 0) and allotted to treatments. Controls were treated with a 1.2% methylcellulose gel formulation without triptorelin at 96 hours following MATRIX® withdrawal (last top-dress). The remaining gilts received 200 mcg triptorelin, as the acetate, in a 1.2% methylcellulose gel formulation intravaginally at various times after MATRIX® withdrawal. The four treatments were: 1) vehicle gel (VG) treatment at 96 hours after MATRIX® withdrawal, 2) triptorelin gel (TG) treatment at 96 hours after MATRIX® withdrawal, 3) TG treatment at 120 hours after MATRIX® withdrawal and 4) TG treatment at 144 hours after MATRIX® withdrawal. All gilts were monitored for their estrous and ovulatory status as described below. Gilts included in replicate 1 were selected from terminal line commercial production gilts located in grow/finish barns. Sexual maturity, as indicated by one or more estrous periods, was not verified prior to the start of MATRIX® feeding. Gilts included in replicate 2 were selected from a maternal line gilt population. Sexual maturity was verified by at least one estrous period verified and recorded prior to starting MATRIX® feeding. […]
Data were analyzed using the Mixed Models procedures of SAS. […]

gilts [4] = assay: Ovulation monitoring by transrectal ultrasonography, triptorelin gel dose 100-400 mcg at 120 h post-MATRIX (Example 5); settings: for % of Sows Ovulating: raw average, PTK 2-07
Description: as §1
Ovulation was monitored twice on Day 5 (8 hours and 16 hours post-treatment) and every 8 hours on Day 6 and Day 7 or until ovulation was confirmed or 176 hours following last MATRIX® feeding. The ovulatory status of all gilts was monitored by transrectal ultrasonography. An Aloka 500 ultrasound machine is used for this purpose, with a 7.5 MHz linear array transducer attached to a fixed-angle PVC stabilizing rod to facilitate insertion into the rectum. The transducer and PVC rod are coated with a gynecological lubricant and gently inserted into the rectum until the ovaries can be visualized, one at a time. The diameters of the three largest follicles were recorded (to the nearest 0.1 mm) at each scanning. A gilt was declared to have ovulated when the number of large follicles (≧6.5 mm) fell to less than 3.
as §2

LH = assay: Serum LH surge after triptorelin gel (Example 5)
Description: A catheter was inserted non-surgically into the jugular vein (Kraeling et al. 1982) of a subpopulation of gilts in each treatment group (vehicle gel, n=8; 100 mcg triptorelin, n=6; 200 mcg triptorelin, n=7 and 400 mcg triptorelin, n=6). Ten mL blood samples were collected every 15 minutes for one hour prior to treatment, immediately following treatment (0) and at 0.5, 1, 2, 4, 6, 12, 18, 24, 36 and 48 hours after treatment. Blood samples were maintained at 4° C. until centrifuged at 800 x g for 15 minutes within 12 hours of collection. The resulting serum was stored frozen until assayed for LH using validated procedures for pig serum (Kesner et al., 1987 and Kraeling et al., 1982). Onset, duration, and magnitude of the LH surge were analyzed. The LH data were analyzed with the General Linear Models procedure of SAS. Differences between treatments were tested on least squares means estimates using the T test at P<0.05. Onset of the LH surge is when serum LH concentration is greater than or equal to two standard deviations of the mean of the pre-treatment serum LH concentrations. Duration of the LH surge is the period between onset and when serum LH concentration is again less than or equal to two standard deviations of the mean of the pre-treatment serum LH concentrations. Magnitude of the LH surge is the maximum serum LH concentration reached during the LH surge.

[5] = 200 mcg T in gel at 120 h post-MATRIX, relative to time of treatment, one gilt with surge

**Q.** `CC(C)C[C@H](NC(=O)[C@@H](Cc1c[nH]c2ccccc12)NC(=O)[C@H](Cc1ccc(O)cc1)NC(=O)[C@H](CO)NC(=O)[C@H](Cc1c[nH]c2ccccc12)NC(=O)[C@H](Cc1c[nH]cn1)NC(=O)[C@@H]1CCC(=O)N1)C(=O)N[C@@H](CCCNC(=N)N)C(=O)N1CCC[C@H]1C(=O)NCC(N)=O` [T, pGlu-His-Trp-Ser-Tyr-D-Trp-Leu-Arg-Pro-Gly-NH2] was tested. Which “Estrous Expression (%)” value (gilts [1]; 100 mcg T at 120 h post-MATRIX) did it give?
**A.** The value was 75.0%.

**Q.** What about the “Estrous Expression (%)” value (gilts [1]; 200 mcg T at 120 h post-MATRIX) of the same compound?
**A.** The value was 81.0%.

**Q.** What about the “% of Sows Ovulating” value (gilts [2]; 128 h post-MATRIX (8 h post-T)) of the same compound?
**A.** Its value is 0.0%.

**Q.** What about the “% of Sows Ovulating” value (gilts [2]; 136 h post-MATRIX (16 h post-T)) of the same compound?
**A.** The value was 10.0%.

**Q.** And the “% of Sows Ovulating” value (gilts [2]; 144 h post-MATRIX (24 h post-T))?
**A.** Its value is 30.0%.

**Q.** And the “% of Sows Ovulating” value (gilts [2]; 152 h post-MATRIX (32 h post-T))?
**A.** The value was 70.0%.

**Q.** What about the “% of Sows Ovulating” value (gilts [2]; 160 h post-MATRIX (40 h post-T)) of the same compound?
**A.** Its value is 80.0%.

**Q.** And the “% of Sows Ovulating” value (gilts [2]; 168 h post-MATRIX (48 h post-T))?
**A.** Its value is 90.0%.

**Q.** And the “% of Sows Ovulating” value (gilts [2]; 176 h post-MATRIX (56 h post-T))?
**A.** Its value is 100.0%.

**Q.** What about the “Estrous Expression (%)” value (gilts [3]) of the same compound?
**A.** The value was 100.0%.

**Q.** What about the “Percentage ovulated by 48 hours” value (gilts [4]; 100 mcg T in gel at 120 h post-MATRIX, catheterized subpopulation n = 6) of the same compound?
**A.** The value was 100%.

**Q.** And the “Percentage ovulated by 48 hours” value (gilts [4]; 200 mcg T in gel at 120 h post-MATRIX, catheterized subpopulation n = 7)?
**A.** Its value is 100%.

**Q.** What about the “Percentage ovulated by 48 hours” value (gilts [4]; 400 mcg T in gel at 120 h post-MATRIX, catheterized subpopulation n = 6) of the same compound?
**A.** Its value is 100%.

**Q.** What about the “% of Sows Ovulating” value (gilts [4]; 100 mcg T at 120 h post-MATRIX, 128 h post-MATRIX (8 h post-T)) of the same compound?
**A.** Its value is 0.0%.

**Q.** And the “% of Sows Ovulating” value (gilts [4]; 100 mcg T at 120 h post-MATRIX, 136 h post-MATRIX (16 h post-T))?
**A.** Its value is 5.0%.

**Q.** And the “% of Sows Ovulating” value (gilts [4]; 100 mcg T at 120 h post-MATRIX, 144 h post-MATRIX (24 h post-T))?
**A.** The value was 20.0%.

**Q.** And the “% of Sows Ovulating” value (gilts [4]; 100 mcg T at 120 h post-MATRIX, 152 h post-MATRIX (32 h post-T))?
**A.** The value was 30.0%.

**Q.** And the “% of Sows Ovulating” value (gilts [4]; 100 mcg T at 120 h post-MATRIX, 160 h post-MATRIX (40 h post-T))?
**A.** Its value is 60.0%.

**Q.** And the “% of Sows Ovulating” value (gilts [4]; 100 mcg T at 120 h post-MATRIX, 168 h post-MATRIX (48 h post-T))?
**A.** The value was 95.0%.

**Q.** And the “% of Sows Ovulating” value (gilts [4]; 100 mcg T at 120 h post-MATRIX, 176 h post-MATRIX (56 h post-T))?
**A.** The value was 100.0%.

**Q.** And the “% of Sows Ovulating” value (gilts [4]; 200 mcg T at 120 h post-MATRIX, 128 h post-MATRIX (8 h post-T))?
**A.** Its value is 0.0%.

**Q.** And the “% of Sows Ovulating” value (gilts [4]; 200 mcg T at 120 h post-MATRIX, 136 h post-MATRIX (16 h post-T))?
**A.** Its value is 0.0%.

**Q.** What about the “% of Sows Ovulating” value (gilts [4]; 400 mcg T at 120 h post-MATRIX, 128 h post-MATRIX (8 h post-T)) of the same compound?
**A.** The value was 4.5%.

**Q.** What about the “% of Sows Ovulating” value (gilts [4]; 400 mcg T at 120 h post-MATRIX, 136 h post-MATRIX (16 h post-T)) of the same compound?
**A.** The value was 9.1%.

**Q.** What about the “% of Sows Ovulating” value (gilts [4]; 400 mcg T at 120 h post-MATRIX, 168 h post-MATRIX (48 h post-T)) of the same compound?
**A.** The value was 100.0%.

**Q.** What about the “% of Sows Ovulating” value (gilts [4]; 400 mcg T at 120 h post-MATRIX, 176 h post-MATRIX (56 h post-T)) of the same compound?
**A.** The value was 100.0%.

**Q.** What about the “Gilts, which displayed a LH surge” value (LH; 100 mcg T in gel at 120 h post-MATRIX, number of n = 6 catheterized gilts) of the same compound?
**A.** The value was 4.

**Q.** What about the “Onset of LH surge” value (LH; 100 mcg T in gel at 120 h post-MATRIX, relative to time of treatment, LS mean ± SE) of the same compound?
**A.** Its value is 4 ± 3.

**Q.** And the “Gilts, which displayed a LH surge” value (LH; 200 mcg T in gel at 120 h post-MATRIX, number of n = 7 catheterized gilts)?
**A.** The value was 1.

**Q.** And the “Duration of LH surge” value (LH; 200 mcg T in gel at 120 h post-MATRIX, one gilt with surge)?
**A.** Its value is 18.

**Q.** What about the “Onset of LH surge” value (LH; [5]) of the same compound?
**A.** The value was 0.5.

**Q.** And the Time of maximum LH conc. (LH; [5])?
**A.** The Time of maximum LH conc. was 4 h.

**Q.** And the “Gilts, which displayed a LH surge” value (LH; 400 mcg T in gel at 120 h post-MATRIX, number of n = 6 catheterized gilts)?
**A.** The value was 5.

**Q.** And the “Onset of LH surge” value (LH; 400 mcg T in gel at 120 h post-MATRIX, relative to time of treatment, LS mean ± SE)?
**A.** Its value is 4 ± 4.
